Reference: publication PMC8952190, “Bromodomain and Extra-Terminal Inhibitor BMS-986158 Reverses Latent HIV-1 Infection In Vitro and Ex Vivo by Increasing CDK9 Phosphorylation and Recruitment” (Pharmaceuticals, 2022)

Legend:
BRD4 = BRD4 (Homo sapiens, UniProt O60885); test: HTRF binding assay (cell-free, protein and peptide)
BRD2 = target: T1, BRD2 (Homo sapiens, UniProt P25440); test: as above
T1 construct: BRD2(1,2)
T1 sequence (P25440 whole entry): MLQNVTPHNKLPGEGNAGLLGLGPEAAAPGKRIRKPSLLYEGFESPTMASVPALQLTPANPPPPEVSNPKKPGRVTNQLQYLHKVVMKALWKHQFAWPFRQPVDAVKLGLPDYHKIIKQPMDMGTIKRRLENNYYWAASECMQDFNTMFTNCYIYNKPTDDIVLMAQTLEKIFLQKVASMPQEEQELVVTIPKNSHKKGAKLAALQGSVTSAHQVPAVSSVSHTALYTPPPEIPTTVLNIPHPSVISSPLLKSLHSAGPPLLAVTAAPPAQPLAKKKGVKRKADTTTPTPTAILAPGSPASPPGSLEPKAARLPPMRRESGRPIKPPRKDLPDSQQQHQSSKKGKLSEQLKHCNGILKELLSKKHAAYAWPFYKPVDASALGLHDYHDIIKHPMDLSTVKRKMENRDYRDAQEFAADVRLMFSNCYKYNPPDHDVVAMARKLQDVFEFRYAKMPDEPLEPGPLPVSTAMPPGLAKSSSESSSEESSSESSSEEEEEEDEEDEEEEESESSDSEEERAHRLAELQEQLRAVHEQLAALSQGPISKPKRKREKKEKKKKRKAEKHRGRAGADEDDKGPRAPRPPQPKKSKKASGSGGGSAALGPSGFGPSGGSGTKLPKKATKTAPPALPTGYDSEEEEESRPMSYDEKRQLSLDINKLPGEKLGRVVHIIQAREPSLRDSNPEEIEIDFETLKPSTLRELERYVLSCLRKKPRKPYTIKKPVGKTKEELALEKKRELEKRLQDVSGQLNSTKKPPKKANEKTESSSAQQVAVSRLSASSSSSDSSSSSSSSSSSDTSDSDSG

- IC50 (BRD4): 2.75 nM
- IC50 (BRD2): 1.17 nM
Compound: Cc1nnn(C)c1-c1cnc2c3ccc(C(C)(C)O)cc3n([C@H](c3ccccc3)C3CCOCC3)c2c1 [BMS-986158]
